Data set [1] in a line: Stability of TMZ in dextran phosphate gel of pH 7.2-7.4 (prior art BY 11838 C1). The class given is physicochemical. The text has this: BY 11838 C1 discloses a combined treatment method for malignant brain tumors. The method comprises surgical excision of the tumor tissue followed by application of TMZ comprised by high substituted dextran phosphate gel of pH 7.2-7.4. The dry weight ratio of TMZ/high substituted dextran phosphate in the preparation is 0.03:1.0. The freeze-dried gel is reconstituted by the addition of sterile water and pH adjusted prior to use, then applied to the wound surface. […] In addition, the structure of highly substituted dextran phosphate contains a large number of di- and tri-substituted phosphoric acid groups, which provide additional cross-linking of macromolecules, which reduces the ability to absorb water and limits the amount of TMZ to 30 mg/g in the gel of highly substituted dextran phosphate. The low concentration of TMZ in the composition implies that the volume must be increased to administrate higher dose of the substance, i.e., the prodrug TMZ, and thus also the amount highly substituted dextran phosphates administered is increased. A 2- or 3-fold increase in the amount of highly substituted dextran phosphates can lead to undesirable reactions associated with the duration of the biodegradation process. […]

The conditions of data set [2]: oral administration; cited from earlier work.

Usually half-life stands for the time in which the quantity being followed falls by half.

As for `Cn1nnc2c(C(N)=O)ncn2c1=O` [TMZ, 4-methyl-5-oxo-2,3,4,6,8-pentazabicyclo[4.3.0]nona-2,7,9-triene-9-carboxamide], the “stability of TMZ (hydrolysis to AIC)” value in data set [1] is given as “decomposes”. Moreover, in data set [2], the half-life is on record as 1.8 h and the “time to peak plasma concentration” value was 0.7 h.

The values above are taken from patent US10806732B2, “Stable anti-neoplastic pharmaceutical composition comprising temozolomide and method of preparing the composition” (DOUBLE BOND PHARMACEUTICAL AB, priority 2016, dated 2020).
